Test results as given in US20080004271A1, “Inhibitors of TNFalpha, PDE4 and B-RAF, compositions thereof and methods of use therewith” (priority 2006, published 2008).
pIC50: −log10 of the molar value.

Legend:
human PDE2 = target: T1, human PDE2 (Homo sapiens, UniProt O00408); test: PDE2 enzyme assay (PDE selectivity); type: biochemical; details: read-out: PDE2 (% inhibit at 10 μM)
T1 construct: MDS Pharma Services
Procedure: (§1) The phosphodiesterase selectivity of 2,5-Diamino-4-(4-chloro-phenyl)-thieno[2,3-d]pyrimidine-6-carboxylic acid amide was assessed by testing against bovine PDE1, human PDE2, PDE3 and PDE5 from human platelets and PDE6 from bovine retinal rod outer segments (MDS Pharma Services).

[1] = target: T2, PDE5 from human platelets (Homo sapiens, UniProt O76074); test: PDE5 enzyme assay (PDE selectivity); type: biochemical; details: read-out: PDE5 (% inhibit at 10 μM)
T2 construct: PDE3 and PDE5 from human platelets; tissue MDS Pharma Services; host or cells: human platelets
Procedure: as §1

[2] = target: T3, PDE6 from bovine retinal rod outer segments (Bos taurus, UniProt P11541+P23439); test: PDE6 enzyme assay (PDE selectivity); type: biochemical; details: read-out: PDE6 (% inhibit at 10 μM)
T3 construct: PDE6 from bovine retinal rod outer segments; tissue MDS Pharma Services; host or cells: bovine retinal rod outer segments
T3 sequence (P11541 2-856 limits assumed): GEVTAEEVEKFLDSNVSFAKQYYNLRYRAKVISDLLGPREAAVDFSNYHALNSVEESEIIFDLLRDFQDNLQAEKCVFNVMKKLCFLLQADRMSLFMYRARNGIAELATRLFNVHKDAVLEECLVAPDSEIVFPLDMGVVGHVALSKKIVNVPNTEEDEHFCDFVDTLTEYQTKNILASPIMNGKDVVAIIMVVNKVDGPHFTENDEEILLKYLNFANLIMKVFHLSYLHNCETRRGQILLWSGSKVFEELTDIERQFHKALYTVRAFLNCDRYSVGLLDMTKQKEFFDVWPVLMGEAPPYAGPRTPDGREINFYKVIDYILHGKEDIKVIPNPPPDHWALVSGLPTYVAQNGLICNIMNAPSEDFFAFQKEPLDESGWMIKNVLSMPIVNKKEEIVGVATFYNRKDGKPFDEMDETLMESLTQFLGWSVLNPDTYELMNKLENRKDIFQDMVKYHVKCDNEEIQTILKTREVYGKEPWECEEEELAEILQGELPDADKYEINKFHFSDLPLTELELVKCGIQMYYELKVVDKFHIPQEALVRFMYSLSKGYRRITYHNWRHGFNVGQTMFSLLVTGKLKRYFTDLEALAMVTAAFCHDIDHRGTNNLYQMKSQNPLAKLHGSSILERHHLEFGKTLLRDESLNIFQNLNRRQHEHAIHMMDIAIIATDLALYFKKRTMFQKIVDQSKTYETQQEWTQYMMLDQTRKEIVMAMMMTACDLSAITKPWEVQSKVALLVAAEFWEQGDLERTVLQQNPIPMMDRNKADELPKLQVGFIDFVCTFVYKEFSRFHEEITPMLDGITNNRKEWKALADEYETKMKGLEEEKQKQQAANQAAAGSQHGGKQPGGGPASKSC
T3 sequence (P23439 2-850 limits assumed): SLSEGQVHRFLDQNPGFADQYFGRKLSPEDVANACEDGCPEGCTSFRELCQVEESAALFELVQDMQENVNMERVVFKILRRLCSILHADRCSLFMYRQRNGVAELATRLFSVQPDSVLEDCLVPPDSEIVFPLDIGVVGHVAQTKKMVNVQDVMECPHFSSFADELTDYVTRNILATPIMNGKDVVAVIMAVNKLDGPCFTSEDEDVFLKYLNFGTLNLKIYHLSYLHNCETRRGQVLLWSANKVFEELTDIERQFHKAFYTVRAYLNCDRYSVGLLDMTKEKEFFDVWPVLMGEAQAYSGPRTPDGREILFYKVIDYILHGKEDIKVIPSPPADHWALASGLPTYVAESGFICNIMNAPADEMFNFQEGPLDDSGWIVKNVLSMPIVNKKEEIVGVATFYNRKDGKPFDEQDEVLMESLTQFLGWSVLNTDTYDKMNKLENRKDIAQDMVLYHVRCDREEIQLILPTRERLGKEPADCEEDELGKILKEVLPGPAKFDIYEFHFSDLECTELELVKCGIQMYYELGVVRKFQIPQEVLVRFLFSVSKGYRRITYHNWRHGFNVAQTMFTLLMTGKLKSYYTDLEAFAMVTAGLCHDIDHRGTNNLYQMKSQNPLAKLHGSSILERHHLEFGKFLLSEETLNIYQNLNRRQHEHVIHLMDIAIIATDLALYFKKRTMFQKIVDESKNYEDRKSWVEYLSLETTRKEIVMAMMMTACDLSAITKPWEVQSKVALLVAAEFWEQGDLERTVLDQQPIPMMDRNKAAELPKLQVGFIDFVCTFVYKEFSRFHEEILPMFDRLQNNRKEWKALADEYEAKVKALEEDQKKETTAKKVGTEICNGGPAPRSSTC
Procedure: as §1

[3] = system: PDE4 enzyme purified from U937 human monocytic cells; test: PDE4 (U937 cell-derived) enzyme assay; type: biochemical
Procedure: PDE4 enzyme is purified from U937 human monocytic cells by gel filtration chromatography as previously described (Muller et al. Bioorg. & Med Chem Lett 8:2669-2674 (1998)). Phosphodiesterase reactions are carried out in 50 mM Tris HCl pH 7.5, 5 mM MgCl2, 1 μM cAMP, 10 nM [^3H]-cAMP for 30 minutes at 30° C., terminated by boiling, treated with 1 mg/ml snake venom and separated using AG-1XS ion exchange resin (BioRad) as described (Id). Reactions consumed less than 15% of available substrate.

bovine PDE1 = test: PDE1 enzyme assay (PDE selectivity); type: biochemical
Procedure: as §1

[4] = target: T4, PDE3 from human platelets (Homo sapiens, UniProt Q14432); test: PDE3 enzyme assay (PDE selectivity); type: biochemical; details: read-out: PDE3 (% inhibit at 10 μM)
T4 construct: PDE3 and PDE5 from human platelets; tissue MDS Pharma Services; host or cells: human platelets
Procedure: as §1

T1 sequence (O00408 whole entry): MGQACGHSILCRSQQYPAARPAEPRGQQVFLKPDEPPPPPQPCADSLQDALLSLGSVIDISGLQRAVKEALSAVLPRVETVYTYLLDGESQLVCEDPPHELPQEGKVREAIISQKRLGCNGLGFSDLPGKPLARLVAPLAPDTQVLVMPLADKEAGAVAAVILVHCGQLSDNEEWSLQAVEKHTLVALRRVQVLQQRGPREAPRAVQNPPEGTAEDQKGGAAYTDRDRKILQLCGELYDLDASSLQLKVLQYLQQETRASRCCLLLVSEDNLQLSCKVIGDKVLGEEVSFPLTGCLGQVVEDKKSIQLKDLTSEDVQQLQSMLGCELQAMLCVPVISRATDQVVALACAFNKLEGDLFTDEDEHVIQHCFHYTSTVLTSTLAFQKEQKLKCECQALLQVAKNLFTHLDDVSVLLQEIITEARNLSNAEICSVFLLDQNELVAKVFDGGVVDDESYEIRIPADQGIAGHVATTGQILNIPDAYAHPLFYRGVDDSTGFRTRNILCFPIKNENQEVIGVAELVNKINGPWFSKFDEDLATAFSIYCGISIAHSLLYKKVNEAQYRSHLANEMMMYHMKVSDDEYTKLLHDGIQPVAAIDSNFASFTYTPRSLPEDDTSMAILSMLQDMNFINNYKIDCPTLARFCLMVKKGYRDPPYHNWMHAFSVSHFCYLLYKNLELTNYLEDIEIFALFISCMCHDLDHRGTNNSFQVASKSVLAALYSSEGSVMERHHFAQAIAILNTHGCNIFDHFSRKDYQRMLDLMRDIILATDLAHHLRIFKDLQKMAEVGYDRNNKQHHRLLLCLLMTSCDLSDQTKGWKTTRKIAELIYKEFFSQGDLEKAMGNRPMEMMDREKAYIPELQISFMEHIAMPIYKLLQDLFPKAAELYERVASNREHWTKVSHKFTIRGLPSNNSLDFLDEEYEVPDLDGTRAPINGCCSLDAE
T4 sequence (Q14432 whole entry): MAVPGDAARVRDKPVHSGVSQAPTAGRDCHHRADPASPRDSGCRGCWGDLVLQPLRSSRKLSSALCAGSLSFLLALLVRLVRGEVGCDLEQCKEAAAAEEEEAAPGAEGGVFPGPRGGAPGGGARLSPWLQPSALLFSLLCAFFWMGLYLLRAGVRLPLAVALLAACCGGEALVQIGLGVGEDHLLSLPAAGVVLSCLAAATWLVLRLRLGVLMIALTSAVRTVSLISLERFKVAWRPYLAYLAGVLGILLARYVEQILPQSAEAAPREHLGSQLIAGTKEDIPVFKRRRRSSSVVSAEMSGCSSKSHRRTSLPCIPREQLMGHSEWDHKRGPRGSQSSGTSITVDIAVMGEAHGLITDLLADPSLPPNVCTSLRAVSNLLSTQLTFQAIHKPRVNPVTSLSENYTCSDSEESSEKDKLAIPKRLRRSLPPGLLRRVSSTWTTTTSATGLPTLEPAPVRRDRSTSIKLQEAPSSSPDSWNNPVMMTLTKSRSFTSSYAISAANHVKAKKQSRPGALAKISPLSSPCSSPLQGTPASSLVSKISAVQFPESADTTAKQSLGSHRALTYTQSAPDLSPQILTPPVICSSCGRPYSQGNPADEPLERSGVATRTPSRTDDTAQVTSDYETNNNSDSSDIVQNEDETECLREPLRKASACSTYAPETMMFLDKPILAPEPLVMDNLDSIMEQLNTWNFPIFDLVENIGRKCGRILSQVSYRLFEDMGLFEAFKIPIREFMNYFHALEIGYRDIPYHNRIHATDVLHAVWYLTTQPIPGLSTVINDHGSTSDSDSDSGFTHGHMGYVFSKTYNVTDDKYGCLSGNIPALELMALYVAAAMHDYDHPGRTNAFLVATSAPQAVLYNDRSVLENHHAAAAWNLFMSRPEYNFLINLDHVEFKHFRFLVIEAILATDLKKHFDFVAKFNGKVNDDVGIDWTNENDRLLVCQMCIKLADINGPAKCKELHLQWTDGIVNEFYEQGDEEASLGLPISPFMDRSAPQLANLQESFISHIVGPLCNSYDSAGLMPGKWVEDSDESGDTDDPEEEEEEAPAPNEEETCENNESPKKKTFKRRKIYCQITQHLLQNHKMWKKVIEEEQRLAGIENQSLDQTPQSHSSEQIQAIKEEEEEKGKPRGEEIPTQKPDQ

Question: For `NC(=O)c1sc2nc(N)nc(-c3ccc(Cl)cc3)c2c1N` [2,5-Diamino-4-(4-chloro-phenyl)-thieno[2,3-d]pyrimidine-6-carboxylic acid amide], which inhibition at 10 µM (human PDE2) is on record?
Answer: 8%

Question: What about the inhibition at 10 µM [1] of the same molecule?
Answer: -2%

Question: What about the inhibition at 10 µM [2] of the same molecule?
Answer: 8%

Question: And the pIC50 [3]?
Answer: 6.92

Question: What about the “PDE1 (% inhibit at 10 μM)” value (bovine PDE1) of the same molecule?
Answer: 18%

Question: What about the inhibition at 10 µM [4] of the same molecule?
Answer: 14%

Question: For `NC(=O)c1sc2ncnc(-c3cc4c(c(OCc5ccccc5)c3)CCO4)c2c1N` [Example 5.2.140, 5-amino-4-(4-(benzyloxy)-2,3-dihydrobenzofuran-6-yl)thieno[2,3-d]pyrimidine-6-carboxamide], which melting point is on record?
Answer: 239 °C

Question: For `NC(=O)c1sc2ncnc(-c3cccc(NC(=O)Nc4cccc(C(F)(F)F)c4)c3)c2c1N` [Example 5.2.169, 5-amino-4-[3-({[3-(trifluoromethyl)phenyl]amino}-carbonylamino)phenyl]thiopheno[2,3-d]pyrimidine-6-carboxamide], which melting point is on record?
Answer: 201 to 203 °C

Question: With `NC(=O)c1sc2ncnc(-c3cccc(NC(=O)Nc4cccnc4)c3)c2c1N` [Example 5.2.167, 5-amino-4-{3-[(3-pyridylamino)carbonylamino]phenyl}-thiopheno[2,3-d]pyrimidine-6-carboxamide] as the molecule, how does the melting point read?
Answer: 199 to 200 °C

Question: Which melting point does the source give for `NC(=O)c1sc2ncnc(-c3cccc(NC(=O)Nc4ccncc4)c3)c2c1N` [Example 5.2.166, 5-amino-4-{3-[(4-pyridylamino)carbonylamino]phenyl}-thiopheno[2,3-d]pyrimidine-6-carboxamide] here?
Answer: 177 to 179 °C

Question: With `NC(=O)c1sc2ncnc(-c3cc(O)c4c(c3)OCC4)c2c1N` [Example 5.2.141, 5-amino-4-(4-hydroxy-2,3-dihydrobenzofuran-6-yl)thieno[2,3-d]pyrimidine-6-carboxamide] as the molecule, how does the melting point read?
Answer: 285 °C
